Data reported in patent publication US20250073244A1, “CRYSTALLINE FORMS OF PENTAAZA MACROCYCLIC RING COMPLEX” (Galera Labs, LLC, priority 2023, published 2025).

Columns and labels:
Type in all cases: physicochemical
[1] = Differential scanning calorimetry (DSC); conditions: −30 to 250° C.
Description: DSC was performed using a Mettler-Toledo DSC3+ differential scanning calorimeter. A tau lag adjustment is performed with indium, tin, and zinc. The temperature and enthalpy are adjusted with octane, phenyl salicylate, indium, tin and zinc. The adjustment is then verified with octane, phenyl salicylate, indium, tin, and zinc. The sample was placed into a hermetically sealed aluminum DSC pan, the weight was accurately recorded, and the sample was inserted into the DSC cell. A weighed aluminum pan configured as the sample pan was placed on the reference side of the cell. The pan lid was pierced prior to sample analysis. […]
A cycling DSC experiment was conducted for as-received amorphous, in which the sample was analyzed from −25° C. to 200° C., then cooled to −25° C. and reheated to 250° C. at 10° C./min.

[2] = Form E generation attempts via desolvation or heating
Excerpt: These attempts were not successful in providing Form E as a pure crystalline phase. Mixtures primarily composed of Form E and other unidentified crystalline phase(s) were obtained (FIG. 42).
Heat induced crystallization of amorphous GC4711 is described in Table 50.

[3] = X-ray powder diffraction (XRPD)
Description: XRPD patterns were collected with a PANalytical X'Pert PRO MPD or a PANalytical Empyrean diffractometer using an incident beam of Cu radiation produced using an Optix long, fine-focus source. An elliptically graded multilayer mirror was used to focus Cu Kα X-rays through the specimen and onto the detector. Prior to the analysis, a silicon specimen (NIST SRM 640e or 640f) was analyzed to verify the observed position of the Si 111 peak is consistent with the NIST-certified position. A specimen of the sample was sandwiched between 3-μm-thick films and analyzed in transmission geometry. […]
XRPD patterns were collected with a PANalytical X'Pert PRO MPD diffractometer using an incident beam of Cu Kα radiation produced using a long, fine-focus source and a nickel filter. […] Prior to the analysis, a silicon specimen (NIST SRM 640e or 640f) was analyzed to verify the observed position of the Si 111 peak is consistent with the NIST-certified position. […]
XRPD patterns were collected with a PANalytical X'Pert PRO MPD or a PANalytical Empyrean diffractometer using an incident beam of Cu radiation produced using an Optix long, fine-focus source. […] Prior to the analysis, a silicon specimen (NIST SRM 640e or 640f) was analyzed to verify the observed position of the Si 111 peak is consistent with the NIST-certified position. […]

[4] = Approximate solubility of the starting material at 25° C. and 50° C.
Description: About 10 mg of drug substance was weighed to a 2 mL glass vial and aliquot of 20 μL of each solvent will be added to determine solubility at 50° C. Approximate solubility was determined by visual observation.

[5] = as above; remark: listed apart in the source

With `CCC(=O)[O][Mn][O]C(=O)CC.c1cc2nc(c1)CN[C@H]1CCCC[C@@H]1NCCN[C@H]1CCCC[C@@H]1NC2` [Form 8429-73-01] the DSC endotherm onset [1] was “endotherm onset of 232 °C”.

`CCC(=O)[O][Mn][O]C(=O)CC.c1cc2nc(c1)CN[C@H]1CCCC[C@@H]1NCCN[C@H]1CCCC[C@@H]1NC2` [Form 8429-39-01] gave an Observation ([2]; amorphous material (pale light yellow) after held @ 100° C., 5 min.) of 3. peach in color.

For `CCC(=O)[O][Mn][O]C(=O)CC.c1cc2nc(c1)CN[C@H]1CCCC[C@@H]1NCCN[C@H]1CCCC[C@@H]1NC2` [Sample 8516-07-01], the “Result (form)” value ([2]; 8429-97-01 Forn E + Form A, vacuum dried, ambient, 2 days) was “peaks”.

In the case of `CCC(=O)[O][Mn][O]C(=O)CC.c1cc2nc(c1)CN[C@H]1CCCC[C@@H]1NCCN[C@H]1CCCC[C@@H]1NC2` [Sample 8429-97-03], the “Result (form)” value ([2]; P2O5, 4 days) is reported as “E + A”.

For `CCC(=O)[O][Mn][O]C(=O)CC.c1cc2nc(c1)CN[C@H]1CCCC[C@@H]1NCCN[C@H]1CCCC[C@@H]1NC2` [Sample 8429-84-01], the “Result (form)” value ([2]; 8429-79-01 and 8429-79-02, Form A + E combined and stored over P2O5, 5 days) was “E + A”.

In the case of `CCC(=O)[O][Mn][O]C(=O)CC.c1cc2nc(c1)CN[C@H]1CCCC[C@@H]1NCCN[C@H]1CCCC[C@@H]1NC2` [Sample 8429-73-01], the DSC minor endotherm [1] is reported as “minor endotherm near 197 °C” and the “XRPD Result” value [3] is reported as “Form E + peaks”.

In the case of `CCC(=O)[O][Mn][O]C(=O)CC.c1cc2nc(c1)CN[C@H]1CCCC[C@@H]1NCCN[C@H]1CCCC[C@@H]1NC2` [drug substance], the Solubility ([4]; 1,4-Dioxane) is reported as “S > 259.5 mg/mL”, the Solubility ([4]; 2-Propanol) is reported as “S > 292.5 mg/mL” and the Solubility ([4]; Acetonitrile) is reported as “S > 315.5 mg/mL”. For the same compound, the Solubility ([4]; Dichloromethane) was “S > 278.5 mg/mL”, the Solubility ([4]; Ethanol) was “S > 281.5 mg/mL” and the Solubility ([4]; Methanol) was “S > 332.0 mg/mL”. For the same compound, the Solubility ([4]; Tetrahydrofuran) was “S > 319.0 mg/mL”, the Solubility ([4]; Water) was “S > 337.5 mg/mL” and the Solubility ([5]; 2-Propanol, 25° C.) was “S > 285.5 mg/mL”. The Solubility ([5]; Dichloromethane, 25° C.) was “S > 297.5 mg/mL”, the Solubility ([5]; Ethanol, 25° C.) was “S > 322.5 mg/mL” and the Solubility ([5]; Heptane, 25° C.) was “S < 3.7 mg/mL”. The Solubility ([5]; Heptane, 50° C.) was “S < 3.7 mg/mL”, the Solubility ([5]; Methanol, 25° C.) was “S > 306.0 mg/mL” and the Solubility ([5]; Tetrahydrofuran, 25° C.) was “S > 319.0 mg/mL”. For the same compound, the Solubility ([5]; Water, 25° C.) was “S > 314.5 mg/mL”.
